Assay results: patent publication US20040096845A1, “Peritoneal dialysates” (priority 2000, published 2004)
Read-outs that look alike come from different tables or passages of the source.

Experiments:
Collagen IV = assay: Suppression of methylglyoxal-induced cross linking of collagen IV, by fluorescent intensity; format: biochemical
[1] = Redox potential of cross linking suppressors; format: physicochemical
[2] = system: AGE formation in peritoneum tissue; settings: rat
[3] = collagen IV + methylglyoxal in phosphate buffer solution, 37° C., 7 days, relative to Control 3 = 100
[4] = Table 3, Control 3 (no suppressor) +282

Row | Compound | Increase in FI % (Collagen IV) [%] | Redox potential (mV) [1] | further results
1 | CNC(=S)NC [Dimethylthiourea] | 2 | −40 mV | 
2 | O=C(C[n+]1ccsc1)c1ccccc1.[Br-] [N-Phenacyl thiazolium bromide] |  |  | AGE formation in peritoneum (in words) ([2]; solution (C), methylglyoxal + additive, 5 days): did not form AGE; AGE formed on peritoneum tissue through first 5 days infusion, after second 5 days infusion (in words) ([2]; solution (D), additive alone for second 5 days): disappeared
3 | O=S([O-])O.[Na+] [Sodium bisulfite] | 0 | −127 mV | 
4 | S [Sodium hydrosulfide] | 10 | −620 mV | 
5 | O=S([O-])S(=O)[O-].[Na+].[Na+] [Sodium hydrosulfite (Na2S2O4), Sodium hydrosulfite] |  |  | Increase in FI % (Collagen IV; [3]): 0%; Redox potential (mV) [1, 4]: −360 mV
6 | O=S([O-])S(=O)(=O)[O-].[Na+].[Na+] [Sodium metabisulfite] |  |  | Increase in FI % (Collagen IV; [3]): 0%; Redox potential (mV) [1, 4]: +17 mV
7 | O=S([O-])([O-])=S.[Na+].[Na+] [Sodium thiosulfate] | 67 | +40 mV | 
